Source: patent US20090176772A1, “METHOD OF REVERSING LEFT VENTRICULAR REMODELING” (priority 2004, published 2009)

Assays:
[1] = system: dogs with chronic heart failure produced by multiple sequential intracoronary microembolizations; assay: Blood neurohumoral and electrolyte measurements in dogs with chronic heart failure; type: in vivo, dog; conditions: mean±SEM; for T-PNE = transmyocardial norepinephrine: aorta minus coronary sinus
Excerpt: (§1) The following example examines the effects of ranolazine alone and in combination with an angiotensin converting enzyme (ACE) inhibitor and in combination with a beta-blocker on the progression of left ventricular (LV) dysfunction and LV chamber remodeling in dogs with chronic heart failure produced by multiple sequential intracoronary microembolizations.
(§2) Chronic LV dysfunction and failure in dogs was produced by multiple sequential intracoronary embolizations with polystyrene Latex microspheres (77-109 μm in diameter) as previously described by Sabbah et al. (1991) Am. J. Physiol. 260:H1379-H1384. Coronary microembolizations were performed during cardiac catheterization under general anesthesia and sterile conditions. Anesthesia was induced using a combination of intravenous injections of hydromorphone (0.22 mg/kg), diazepam (0.2-0.6 mg/kg) and sodium pentobarbital 50-100 mg to effect. Plane of anesthesia was maintained throughout the study using 1% to 2% isoflurane. Left and right heart catheterization was performed via a femoral arteriotomy and venotomy. After each catheterization, the vessels were repaired using 6-0 silk and the skin closed with 4-0 suture. Microembolizations were discontinued when LV ejection fraction, determined angiographically, was between 30% and 40%. A period of 2 weeks was allowed after the last embolization to ensure that infarctions produced by the last microembolizations have completely healed and heart failure was established. The study protocol was then performed.
(§3) Healthy, conditioned, purpose-bred mongrel dogs weighing between 19 and 25 kg.
(§4) A randomized, blinded, placebo controlled study design was used. A total of 28 dogs underwent multiple sequential intracoronary microembolizations as described above to produce chronic heart failure. Two weeks after the last embolization, dogs were randomized into 4 study groups (treatment arms). Dogs were randomized to 3 months oral therapy with ranolazine alone (375 mg, bid, n=7), ranolazine (375 mg bid) in combination with metoprolol tartrate (25 mg bid, n=7), ranolazine (375 mg bid) in combination with enalapril (10 mg bid, n=7), or placebo (ranolazine vehicle bid, n=7). Hemodynamic, angiographic, echocardiographic, Doppler and neurohumoral measurements were made prior to randomization (2 weeks after the last embolization) and after completion of therapy (3 months after initiating therapy). After completing the final hemodynamic and angiographic study, dogs were euthanized and the hearts removed and tissue prepared and saved for future histological and biochemical evaluations. The study primary and secondary end-points were as follows:
Evaluation of plasma concentrations of several neurohormones were made to complement the hemodynamic assessments. Measurements were made at each of the study time periods described for hemodynamic and angiographic assessments. Transmyocardial PNE concentration was estimated by obtaining blood samples from the ascending aorta and coronary sinus during cardiac catheterization. Transmyocardial PNE was calculated as the difference between the two samples. Venous blood samples were obtained in duplicate from conscious dogs prior to cardiac catheterizations for measurement of plasma concentration of norepinephrine, plasma renin activity and plasma atrial natriuretic factor using radioimmunoassay. In addition, blood samples were obtained at the same time intervals for determination of serum electrolytes (Na+, K+, creatinine and BUN).
To ensure that all study measures were similar at baseline, comparisons were made between all 4 study groups before any embolizations and at the time of randomization before initiation of therapy. For these comparisons, a one way analysis of variance (ANOVA) was used with a set at 0.05. If significance was attained, then group wise comparisons were made using the Student-Newman-Kuels test with significance set at p≦0.05. […]

[2] = system: dogs with chronic heart failure produced by multiple sequential intracoronary microembolizations; assay: Echocardiographic and Doppler measurements in dogs with chronic heart failure; type: in vivo, dog; conditions: mean±SEM
Excerpt: as §1, §2, §3, §4
Echocardiographic and Doppler studies were performed in all dogs at all specified study time points using a 77030A ultrasound system (Hewlett-Packard) with a 3.5 MHZ transducer. All echocardiographic measurements were made with the dog placed in the right lateral decubitus position and recorded on a Panasonic 6300 VHS recorder for subsequent off-line analysis. Transverse 2-dimensional echocardiograms were obtained at the level of the LV papillary muscle and were used to calculate LV fractional area of shortening. The latter was calculated as the end-diastolic LV cavity area minus the end-systolic cavity area divided by the end-diastolic cavity area times 100. Two chamber view 2-dimensional echocardiograms were also obtained to ascertain LV major and minor semiaxes to be used for calculation of LV end-diastolic circumferential wall stress. Wall stress was calculated as follows: Stress=Pb/h(1−h/2b)(1−hb/2a2), where P is LV end-diastolic pressure, a is LV major semiaxis, b is LV minor semiaxis, and h is LV wall thickness.
Mitral inflow velocity was measured by pulsed-wave Doppler echocardiography. The velocity waveforms were used to calculate peak mitral flow velocity in early diastole (PE), peak mitral inflow velocity during LA contraction (PA), the ratio of PE to PA and early mitral inflow deceleration time. […]

[3] = POST: after 3 months of oral therapy bid
[4] = PRE: at time of randomization, before therapy
[5] = change from pre-treatment to post-treatment (3 months)

## COc1ccccc1OCC(O)CN1CCN(CC(=O)Nc2c(C)cccc2C)CC1 (racemic) [RAN Alone, (±)-N-(2,6-dimethylphenyl)-4-[2-hydroxy-3-(2-methoxyphenoxy)-propyl]-1-piperazineacetamide]
[1]; [3]
  T-PNE = transmyocardial norepinephrine: −2.9 ± 6.1
  ANF = atrial natriuretic factor: 67 ± 11 pg/mL
  BUN = blood urea nitrogen: 15 ± 2 mg/dL
  Creat = serum creatinine: 1.0 ± 0.1 mg/dL
  K+ (serum electrolyte): 4.7 ± 0.1
  Na+ (serum electrolyte): 147 ± 0.8
  PNE = plasma norepinephrine: 199 ± 43 pg/mL
  PRA = plasma rennin activity: 1.57 ± .55 ng/mL/h
[1]; [4]
  T-PNE = transmyocardial norepinephrine: 8.6 ± 7.0
  ANF = atrial natriuretic factor: 87 ± 15 pg/mL
  BUN = blood urea nitrogen: 18 ± 2 mg/dL
  Creat = serum creatinine: 0.9 ± 0.0 mg/dL
  K+ (serum electrolyte): 4.5 ± 0.1
  Na+ (serum electrolyte): 147 ± 0.5
  PNE = plasma norepinephrine: 217 ± 25 pg/mL
  PRA = plasma rennin activity: 1.69 ± .71 ng/mL/h
[1]; [5]
  Δ ANF (atrial natriuretic factor): 20 ± 14 pg/mL
  Δ BUN (blood urea nitrogen): -2.1 ± 1.4 mg/dL
  Δ Creat (serum creatinine): 0.0 ± 0.1 mg/dL
  Δ K+: 0.1 ± 0.1
  Δ Na+: −0.3 ± 1.0
  Δ PNE (plasma norepinephrine): -19 ± 42 pg/mL
  Δ PRA (plasma rennin activity): 0.13 ± 0.92 ng/mL/h
  Δ T-PNE (transmyocardial norepinephrine): −11 ± 9
[2]; [3]
  DT = deceleration time: 87 ± 4 ms
  EDWS = LV end-diastolic circumferential wall stress: 42 ± 4 gm-cm^2
  FAS = LV fractional area of shortening: 29 ± 2%
  MR = severity of mitral regurgitation: 10.1 ± 1.3%
  PE/PA (mitral inflow velocity ratio): 2.8 ± 0.3
[2]; [4]
  DT = deceleration time: 88 ± 3 ms
  EDWS = LV end-diastolic circumferential wall stress: 56 ± 5 gm-cm^2
  FAS = LV fractional area of shortening: 28 ± 1%
  MR = severity of mitral regurgitation: 11.3 ± 1.9%
  PE/PA (mitral inflow velocity ratio): 2.7 ± 0.3
[2]; [5]
  Δ DT (deceleration time): -1 ± 4 ms
  Δ EDWS (LV end-diastolic circumferential wall stress): −14.5 ± 5.2 gm-cm^2
  Δ FAS (LV fractional area of shortening): 1 ± 1 %
  Δ MR (severity of mitral regurgitation): −1.2 ± 1.1%
  Δ PE/PA: 0.0 ± 0.4
